Experimental data taken from ChEMBL document CHEMBL1136242, “Arachidonylsulfonyl derivatives as cannabinoid CB1 receptor and fatty acid amide hydrolase inhibitors” (Bioorg Med Chem Lett, 2003).

Legend:
[1] = biological target: T1, Fatty-acid amide hydrolase 1 (Mus musculus, UniProt O08914); experiment: Inhibitory potency of Fatty-acid amide hydrolase with Mouse brain membrane
T1 sequence (O08914 whole entry): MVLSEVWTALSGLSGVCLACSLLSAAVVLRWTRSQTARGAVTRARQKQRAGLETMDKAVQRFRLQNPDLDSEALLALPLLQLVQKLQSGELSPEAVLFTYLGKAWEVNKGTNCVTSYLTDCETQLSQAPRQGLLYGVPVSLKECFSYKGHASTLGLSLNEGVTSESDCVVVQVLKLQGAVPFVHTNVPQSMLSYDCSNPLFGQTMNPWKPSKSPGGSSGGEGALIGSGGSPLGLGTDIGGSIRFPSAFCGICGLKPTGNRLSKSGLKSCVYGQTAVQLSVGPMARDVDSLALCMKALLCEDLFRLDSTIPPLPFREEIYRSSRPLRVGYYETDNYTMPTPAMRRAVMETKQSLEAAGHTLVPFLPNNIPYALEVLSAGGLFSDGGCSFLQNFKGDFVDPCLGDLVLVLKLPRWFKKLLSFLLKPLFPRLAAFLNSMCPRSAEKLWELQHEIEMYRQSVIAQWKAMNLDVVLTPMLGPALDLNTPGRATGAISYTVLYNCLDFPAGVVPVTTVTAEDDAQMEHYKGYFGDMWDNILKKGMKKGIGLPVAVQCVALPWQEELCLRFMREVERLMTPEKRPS

[2] = biological target: T1, Fatty-acid amide hydrolase 1; experiment: Inhibitory potency of Fatty-acid amide hydrolase with Mouse brain membrane in the presence of PMSF
[3] = biological target: Cannabinoid receptor 1 (Mus musculus, UniProt P47746); experiment: Binding affinity towards Cannabinoid receptor 1 was determined using [3H]-CP- cannabinoid as radioligand with mouse brain membrane in the presence of PMSF
Cannabinoid receptor 1 (Mus musculus, UniProt P47746), sequence (P47746 whole entry): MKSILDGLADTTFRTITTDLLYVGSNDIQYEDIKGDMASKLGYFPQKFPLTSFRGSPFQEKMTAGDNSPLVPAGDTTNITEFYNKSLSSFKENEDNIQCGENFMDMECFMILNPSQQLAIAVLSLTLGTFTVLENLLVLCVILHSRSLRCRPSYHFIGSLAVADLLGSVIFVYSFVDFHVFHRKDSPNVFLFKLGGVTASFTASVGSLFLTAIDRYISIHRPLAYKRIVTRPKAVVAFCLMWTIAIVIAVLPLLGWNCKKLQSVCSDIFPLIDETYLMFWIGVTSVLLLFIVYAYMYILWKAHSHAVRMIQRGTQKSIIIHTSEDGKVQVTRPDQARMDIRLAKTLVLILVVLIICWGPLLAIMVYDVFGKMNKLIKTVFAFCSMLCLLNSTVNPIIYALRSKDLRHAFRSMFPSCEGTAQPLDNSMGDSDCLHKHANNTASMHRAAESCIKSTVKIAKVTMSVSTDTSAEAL

[4] = biological target: Cannabinoid receptor 1 (Rattus norvegicus, UniProt P20272); experiment: Binding affinity towards Cannabinoid receptor 1 was determined using [3H]-CP- cannabinoid as radioligand with rat brain membrane
Cannabinoid receptor 1 (Rattus norvegicus, UniProt P20272), sequence (P20272 whole entry): as the sequence (P47746 whole entry) above, with D95E counted along it

[5] = biological target: T2, Fatty-acid amide hydrolase 1 (Rattus norvegicus, UniProt P97612); experiment: Inhibitory potency of Fatty-acid amide hydrolase with rat brain membrane
T2 sequence (P97612 whole entry): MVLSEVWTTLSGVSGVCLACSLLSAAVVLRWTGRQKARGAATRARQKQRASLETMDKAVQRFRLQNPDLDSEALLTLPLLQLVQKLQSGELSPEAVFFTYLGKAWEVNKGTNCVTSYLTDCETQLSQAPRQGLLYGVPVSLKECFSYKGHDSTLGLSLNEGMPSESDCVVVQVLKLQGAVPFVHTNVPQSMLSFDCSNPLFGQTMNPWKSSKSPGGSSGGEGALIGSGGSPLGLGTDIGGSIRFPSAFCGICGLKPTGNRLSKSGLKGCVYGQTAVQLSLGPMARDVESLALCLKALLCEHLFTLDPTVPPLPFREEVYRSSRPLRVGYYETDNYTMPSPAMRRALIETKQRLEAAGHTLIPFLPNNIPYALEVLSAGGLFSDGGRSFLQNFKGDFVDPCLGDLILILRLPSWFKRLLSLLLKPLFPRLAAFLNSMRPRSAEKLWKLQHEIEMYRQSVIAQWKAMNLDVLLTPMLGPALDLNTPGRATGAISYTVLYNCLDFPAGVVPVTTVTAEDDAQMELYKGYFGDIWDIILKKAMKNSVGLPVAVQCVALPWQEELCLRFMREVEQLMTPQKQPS

`CCCCC/C=C\C/C=C\C/C=C\C/C=C\CCCCS(=O)(=O)F` showed an IC50 [1] of 0.11 nM.
With `CCCCC/C=C\C/C=C\C/C=C\C/C=C\CCCCS(=O)(=O)NCCO` the IC50 [2] was about 10000 nM and the IC50 [3] was over 100000 nM.
With `CCCCCCCCCCCCS(=O)(=O)F` [DODECANESULFONYL FLUORIDE] the IC50 [4] was 18 nM, the IC50 [1] was 2 nM and the IC50 [5] was 3 nM.
